Results from patent US12226405B2, “Compounds and compositions for inhibiting the activity of HIF2-alpha and their methods of use” (Novartis AG, priority 2020, dated 2025).

Key:
[1] = system: HIF2α-regulated expression of the endogenous target gene hEGLN3 in 786-O cells; test: Cellular iScript assay for HIF2α (quantitative RT-PCR of hEGLN3); format: cell-based, human; conditions: Homo sapiens, 786-0, 48 hours incubation
Experimental: (§1) Stock solutions of compounds were prepared at a concentration of 10 mM in DMSO and stored at 4° C. Where necessary to afford a full dose-response curve, the stock solutions were pre-diluted in DMSO to 1,000-fold the desired reduced start concentration. On the day after cell seeding, eleven 2-fold serial dilutions of each compound were dispensed directly into the cell assay plates using either HP 300D non-contact Digital Dispenser (TECAN) or a ATS100 acoustic dispenser (EDC Biosystems).
Compound-mediated modulation of the HIF2α-regulated expression of the endogenous target gene hEGLN3 (OMIM: 606426), as well as beta-actin (OMIM: 102630) as a house-keeping control, was assess in 786-O cells (RRID CVCL_1051) using a quantitative RT-PCR approach. In short, 786-O cells were maintained in growth medium composed of DMEM (GIBCO #11995-065), 2 mM L-Glutamine (BioConcept #5-10K50-H), 1× Penicillin/Streptomycin (BioConcept #4-01F00-H), 10% fetal calf serum (Gibco #A31608-01), 1 mM Sodium pyruvate (BioConcept #5-60F00-H). Cells were seeded at 1,000 cells/20 μL/well into white-wall, clear-bottom 384-well plates (Greiner #781098) and incubated over night at 37° C. prior to addition of serial compound dilutions as described above. Following incubation for 48 hours at 37° C., medium supernatant was discarded and the plate blotted dry by inverting on a tissue. The same procedure was repeated following one wash with 20 μL phosphate-buffered saline. Following addition of 25 μL/well iScript sample preparation reagent (BioRad #170-8899) using a 16-channel Matrix pipette, the plate was incubated for 2 min at room temperature. 20 μL lysate supernatant was then removed and transferred to a new 384 well plate (Costar #3656) and diluted 1:3 by adding 5 μL of the lysate to 10 μL H2O using a Bravo liquid handler (Agilent). 2 μL of the diluted lysate was added to the 8 μL of a mastermix containing 5 μL iTaq Universal Probes One-step kit (BioRad #172-5141), 0.25 μL iScript reverse transcription supermix (BioRad #1708840), 0.25 μL 40×HEX-ZEN-labeled TaqMan probe for beta-actin (IDT #Hs.PT.39a.22214847: Probe 5′ HEX-TCA TCC ATG/ZEN/GTG AGC TGG CGG-3′ (SEQ ID NO: 2) Iowa Black FQ, Primer 1: ACA GAG CCT CGC CTT TG (SEQ ID NO: 3); Primer 2: CCT TGC ACA TGC CGG (SEQ ID NO: 4) AG), 0.25 μL, 40×FAM-ZEN-labeled TaqMan probe for hEGLN3 (IDT #Hs.PT.58.189348: Probe 5′ 6-FAM-TTT GGC TTC/ZEN/TGC CCT TTC TTC AGC-3′ (SEQ ID NO: 5) Iowa Black FQ, Primer 1: CACGGTCAGTCTTCAGTGAG (SEQ ID NO: 6); Primer 2: CGCAACCAGATATGCTATGACT (SEQ ID NO: 7)), 2.25 μL RNase-free water, prelaid in a 384 well plate (ABI #4309849) using a 16-channel Matrix pipette. The plate was sealed with a PCR-compatible optical film (MicroAmp, ABI #4360954) and centrifuged (1500 rpm, 5 min, +4° C.) to collect all reagents in the bottom of the well and to remove bubbles. The plate content was amplified on a 7900HT thermal cycler (ABI) using the following conditions: Step 1: 50° C. for 10 min, Step 2: 95° C. for 3 min, Step 3 (40×): 95° C. for 15 s, 60° C. for 1 min. ROX (reaction volume 10 μL) was used as a passive reference. Data were collected with manual adjustment of the Ct threshold (beta-actin: 0.046, hEGLN3: 0.06) and were analyzed using the 2^(−ΔΔCt) method. Thus, for each sample, the following values were calculated: 2^(−Ct)a for beta-actin, 2^(−Ct)e for EGLN3, and 2^(−ΔCt) calculated as (2^(−Ct)e/2^(−Ct)a). The mean 2^(−ΔCt) as well as the corresponding standard deviation was calculated for each sample. Taking the DMSO-treated sample as a reference, the 2^(−ΔΔCt) for each sample was calculated as follows: 2^(−ΔΔCt)=2^(−ΔCt)sample/(2^(−ΔCt)DMSO). After calculating differential expression as 2^(−ΔΔCt) for each sample, it was then expressed as a percentage (×100) to obtain a dose-response curve in % of DMSO control and IC50s were calculated using a four-parametric fit model.

[2] = system: HIF2α-dependent transcription in 786-O-HRE-Luc cells; test: In vitro cellular hypoxia response element (HRE) reporter gene assay (RGA) for HIF2α; format: cell-based, human; conditions: Homo sapiens, 24 hours incubation
Experimental: as §1
The ability of compounds to inhibit HIF2α- and HIF1α-dependent transcription was assessed in 786-O-HRE-Luc and RCC4-HRE-Luc cells, respectively. The putative unselective inhibition of firefly luciferase activity or expression was assessed in 786-O-UB6-Luc and RCC4-UB6-Luc cells, respectively. The reporter lines were generated as follows: 786-O (RRID: CVCL_1051) and RCC4 (RRID: CVCL_0498) clear cell renal carcinoma cell lines were obtained from ATCC and Celeste Simon (University of Pennsylvania), respectively. Either cell line was transduced with a lentiviral vector in which the expression of a PEST-destabilized version of firefly-luciferase is under the control of either a minimal promoter coupled to four copies of a minimal hypoxia response element (HRE) sequence (pLenti 4×HRE Luc PEST), or a promoter from the house-keeping UBC gene (pLenti UB6 Luc PEST). In short, for the construction of the pLenti 4×HRE Luc PEST vector, 4×HRE DNA oligonucleotides were synthesized, annealed and cloned into pGL4.27 plasmid vector (Promega) predigested with NheI and HindIII restriction enzymes. The sequence of the two DNA oligonucleotides was as follows: NheI 4×HRE HindIII FWD: […] (SEQ ID NO: 8); NheI 4×HRE HindIII REV […] (SEQ ID NO: 9). The 4×HRE Luc PEST fragment was then PCRed from this plasmid with restriction enzyme sites NheI and XhoI at the two ends, and inserted into pLenti6/BLOCK iT DEST (Thermo Fisher Scientific) predigested with NheI and XhoI restriction enzymes. For the construction of the pLenti UB6 Luc PEST vector, the Luc PEST sequence was PCRed from pGL4.27 (Promega) using EcoRV and XhoI restriction enzymes at the two ends, and inserted into pLenti6/UBC/V5/DEST (Thermo Fisher Scientific) predigested with the same enzymes. 786-O and RCC4 cells (300,000 per well of a 6 well plate) were infected in the presence of 10 μg/ml polybrene with lentivirus harvested two days after transfection of HEK293-FT (ThermoFisher Scientific #R70007) cells (80% confluent in a 100 cm^2 dish) with a mix of 1.5 ml OptiMEM (ThermoFisher Scientific #31985062) containing 3 μg of the desired plasmids and 9 μl of ViralPower Packaging mix (ThermoFisher Scientific #K497500), and 1.5 ml OptiMEM containing 36 μl Lipofectamine 2000 (ThermoFisher Scientific #11668019). Successfully infected cells were selected using blasticidin (Gibco #A11139-03) at a final concentration of 5 μg/ml. The resulting stable cell lines were named 786-O pLenti 4×HRE Luc PEST (short: 786-O-HRE-Luc), 786-O pLenti UB6 Luc PEST (short: 786-O-UB6-Luc), RCC4 pLenti 4×HRE Luc PEST (short: RCC4-HRE-Luc) and RCC4 pLenti UB6 Luc PEST (short: RCC4-UB6-Luc). All 4 cell lines were maintained in growth medium composed of DMEM (GIBCO #11995-065), 2 mM L-Glutamine (BioConcept #5-10K50-H), 10% fetal calf serum (Gibco #A31608-01), 1× Penicillin/Streptomycin (BioConcept #4-01F00-H), 1 mM Sodium pyruvate (BioConcept #5-60F00-H) and 5 μg/ml blasticidin (Gibco #A11139-03) at 37° C. in a humidified 5% CO2 incubator.
For the reporter gene assay, the individual cell lines were seeded at 2,500 cells/20 μL/well into white-wall, clear-bottom 384-well plates (Greiner #781098) and incubated over night at 37° C. prior to addition of serial compound dilutions as described above. […]

[3] = target: HIF2α PAS-B domain (236-350, biotinylated on the N-terminus) (Homo sapiens (Human), UniProt Q99814)
HIF2α PAS-B domain (236-350, biotinylated on the N-terminus), sequence (Q99814 236-350): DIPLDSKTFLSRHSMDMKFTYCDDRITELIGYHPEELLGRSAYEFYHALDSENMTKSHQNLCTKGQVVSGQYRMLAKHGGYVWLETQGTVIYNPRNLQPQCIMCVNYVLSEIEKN
Experimental: The assay buffer contained 50 mM Tris-HCl pH7 (Sigma), 20 mM NaCl (Fluka), 0.02% BSA (Sigma), 0.005% Triton X-100 (Pierce) and 1 mM DTT (Fluka). After a 30 min incubation period, 5 μL Streptavidin PVT SPA Beads (Perkin Elmer) at 1.2 mg/mL, diluted in the buffer, were added.

Row | SMILES | IC50 [1] | IC50 [2] | IC50 [3]
1 | FC(F)OC1=CC(C(F)(F)F)=CN2CC3(CCCc4c(C(F)(F)F)cccc43)N=C12 (racemic) [Example 87, rac-8-(difluoromethoxy)-5′,6-bis(trifluoromethyl)-3′,4′-dihydro-2′H,3H-spiro[imidazo[1,2-a]pyridine-2,1′-naphthalene]] | 159 nM | – | –
2 | Fc1ccc2c(c1F)CC[C@@]21CN2C=C(C(F)(F)F)C=C(OC(F)F)C2=N1 [Example 2, (S)-8-(difluoromethoxy)-4′,5′-difluoro-6-(trifluoromethyl)-2′,3′-dihydro-3H-spiro[imidazo[1,2-a]pyridine-2,1′-indene]] | 152 nM | 1530 nM | 12 nM
3 | FC(F)OC1=CC(C(F)(F)F)=CN2C[C@@]3(CCc4cc(C(F)(F)F)ccc43)N=C12 [Example 6, (S)-8-(difluoromethoxy)-5′,6-bis(trifluoromethyl)-2′,3′-dihydro-3H-spiro[imidazo[1,2-a]pyridine-2,1′-indene]] | 84 nM | 250 nM | –
4 | FC(F)(F)C1=CN2C[C@@]3(CCc4c3ccc(Br)c4Cl)N=C2C(Cl)=C1 [Example 71, (S)-5′-bromo-4′,8-dichloro-6-(trifluoromethyl)-2′,3′-dihydro-3H-spiro[imidazo[1,2-a]pyridine-2,1′-indene]] | 181 nM | – | 20 nM
5 | FC(F)OC1=CC(C(F)(F)F)=CN2C[C@@]3(CCc4cc(Br)ccc43)N=C12 [Example 72, (5)-5′-bromo-8-(difluoromethoxy)-6-(trifluoromethyl)-2′,3′-dihydro-3H-spiro[imidazo[1,2-a]pyridine-2,1′-indene]] | 84 nM | – | 7 nM
6 | FC(F)OC1=CC(C(F)(F)F)=CN2C[C@@]3(CCc4ccccc43)N=C12 [Example 75, (S)-8-(difluoromethoxy)-6-(trifluoromethyl)-2′,3′-dihydro-3H-spiro[imidazo[1,2-a]pyridine-2,1′-indene]] | 183 nM | – | 76 nM
7 | Fc1cccc2c1CCC[C@@]21CN2C=C(C(F)(F)F)C=C(Cl)C2=N1 [Example 79, (S)-8-chloro-5′-fluoro-6-(trifluoromethyl)-3′,4′-dihydro-2′H,3H-spiro[imidazo[1,2-a]pyridine-2,1′-naphthalene]] | 70 nM | – | 5 nM
8 | O=C1CC[C@@]2(CN3C=C(C(F)(F)F)C=C(OC(F)F)C3=N2)c2ccc(Br)cc21 [Example 90, (S)-6′-bromo-8-(difluoromethoxy)-6-(trifluoromethyl)-2′,3′-dihydro-3H,4′H-spiro[imidazo[1,2-a]pyridine-2,1′-naphthalen]-4′-one] | 162 nM | – | 10 nM
9 | N#CC1=CN2C[C@@]3(CCSc4c3ccc(Br)c4F)N=C2C(OC(F)F)=C1 [Example 110, (S)-7′-bromo-8-(difluoromethoxy)-8′-fluoro-3H-spiro[imidazo[1,2-a]pyridine-2,4′-thiochromane]-6-carbonitrile] | 35 nM | – | –
10 | Fc1ccc2c(c1F)SCC[C@@]21CN2C=C(C(F)(F)F)C=C(OC(F)F)C2=N1 [Example 113, (S)-8-(difluoromethoxy)-7′,8′-difluoro-6-(trifluoromethyl)-3H-spiro[imidazo[1,2-a]pyridine-2,4′-thiochromane]] | 32 nM | – | 4 nM
11 | Fc1cccc2c1CSC[C@@]21CN2C=C(C(F)(F)F)C=C(OC(F)F)C2=N1 [Example 115, (S)-8-(difluoromethoxy)-8′-fluoro-6-(trifluoromethyl)-3H-spiro[imidazo[1,2-a]pyridine-2,4′-isothiochromane]] | 30 nM | – | ≤ 3 nM
12 | Fc1ccc2c(c1)CSC[C@@]21CN2C=C(C(F)(F)F)C=C(OC(F)F)C2=N1 [Example 116, (S)-8-(difluoromethoxy)-7′-fluoro-6-(trifluoromethyl)-3H-spiro[imidazo[1,2-a]pyridine-2,4′-isothiochromane]] | 46 nM | – | 6 nM
